Columns and labels:
[1] = system: VK9; test: ELISA binding of VK9 to plate-coated Globo H-ceramide and Globo H-lipids; conditions: glycan immobilized on microtiter plate from 0.001 to 10 μg/mL; FIG. 8A
Description: Enzyme-linked immunosorbent assay. Clear Flat-Bottom Immuno Nonsterile 96-Well Plates (Thermo Fisher Scientific Inc., Cat#442404)) were coated with the respective glycan-linked glycopeptides at 0.2 μg to 50 μL ethanol per well and were incubated at room temperature overnight. Then 100 μL Casein Blocking Buffer (Sigma-Aldrich Co. LLC, Cat#B6429) was added to each well and the microtiter plate was incubated at room temperature for 30 minutes. All subsequent steps were performed at room temperature.
The microtiter plate was treated with 50 μL of different dilutions of VK9 cells in Casein Blocking Buffer to each well and incubated at room temperature for 1 hr. The wells were then washed three times with Phosphate-buffered saline (Thermo Fisher Scientific Inc., Cat#70011) plus 0.05% (vol/vol) Tween 20 (J. T. Baker, Cat#JTB-X251-07) using a microplate washer (SkanWash 400, Molecular Devices LLC.). […]
The microtiter plate was treated with 100 μL of Alkaline Phosphatase (pNPP) Yellow Liquid Substrate System for ELISA (Sigma-Aldrich Co. LLC., Cat#P7998) at 37° C. for 20 minutes and the reaction was stopped by adding another 50 μL of Stop Solution (3N NaOH). The bound VK9 cells were visualized monitored at 405 nm using a microplate reader (SpectraMax M2, Molecular Devices LLC.). […]

[2] = system: IgM; test: Sugar array IgM binding with pancreatic cancer and healthy clinical samples; parameters: species or system human
Description: The Globo H lipid 1, Globo H lipid 2, and Globo H-ceramide were immobilized on microtiter plate from 0.001 to 10 μg/mL, separately. […] In addition, the comparison of IgM binding patterns of Globo H-ceramide, Globo H-lipid 1, and Globo H-lipid 2 using sugar array was listed in FIG. 8B. […] In some embodiments the complex binding agent may comprise any of the complex binding agents or detectable labels of this disclosure. In certain exemplary embodiments, the Globo H ceramide and Globo H lipids are the array elements and the IgM antibodies are from the sample. And then secondary labeled anti-human ab are used to detect the complexes

[3] = system: Human IgM; test: Glycan array analysis (primary test), glycan score of Human IgM; format: binding
From the text: (§1) This testing platform utilized Agnitio BioIC system which performed an automatically ELISA reaction within a microfluidic cartridge. Each cartridge contained an array of microfluidic pumps and valves, a channel network, reagent storage reservoirs, a glycan array reaction zone, and a waste storage reservoir. To perform the test, all reagent and test sample were pumped sequentially, from their respected reservoirs in to a reaction zone containing the glycan microarray in order to carry out a multiplexed ELISA reaction with chemical luminescence. The result data was captured simultaneously and data analysis was performed by the LabIT software provided by Agnitio Science and Technology Inc. The specification of equipment list of Agnitio BioIC system is listed in Table 2.
The Microfluidic cartridge was manufactured at Agnitio Science and Technology Inc. The microfluidic cartridge was composed by three layers shown in FIG. 9. The upper layer contained serum and reagents reservoirs, microfluidic pumps, and ELISA channel network. The rubber middle layer contained a coated nitrocellulose membrane. The glycan antigens (Globo H-ceramide and Globo H-lipid 1) were immobilized onto the nitrocellulose membrane via hydrophobic interactions. The bottom layer contained a tank as for the waste reservoir. There were one hundred and twenty spots for original array layout design. In order to ensure the spot-to-spot coefficient of variation (CV) was lower than 15%, we only used central sixty-four spots for following clinical sample test.
Reagent preparation: Sixty-six microliter Normal Human Serum (NETS) or pancreatic cancer patient's serum was added in 594 μL Sample Diluent Buffer (BioCheck Inc., Cat#MB 10175) to form ten-fold dilution. The Secondary Antibody Solution was performed by first adding 2 μL Horseradish peroxidase (HRP)-conjugated goat anti-human IgG (KPL Inc., Cat#474-1002)/IgM (KPL Inc., Cat#474-1003) in 98 μL Conjugate Buffer (SuperBlock (TBS) Blocking Buffer plus 0.2% Tween 20, Thermo Fisher Scientific Inc., Cat#37535) to form fifty-fold dilution. Next, 40 μL diluted solution was pumped into 2360 μL Conjugate Buffer to form the Secondary Antibody Solution (3000× diluted).
Assay procedure: Six hundred and twenty microliter Wash Buffer (Phosphate-buffered saline (Thermo Fisher Scientific Inc., Cat#70011) plus 0.2% (vol/vol) Tween 20 (J. T. Baker, Cat#JTB-X251-07)) was added in the “Wash” hole of array. […]
(§2) The glycan array was put on the Agnitio BioIC Pumping Machine for pressurizing 30 minutes. The bound serum was visualized monitored using Agnitio BioIC Analyzer. The absorbance intensity of array was converted into “Glycan Scores” based on the following calculation: In certain examples, glycan scores=(raw data−background)/Internal Control×10. […]

[4] = system: Human IgG; test: Glycan array analysis (primary test), glycan score of Human IgG; format: binding
From the text: as §1
The Microfluidic cartridge was manufactured at Agnitio Science and Technology Inc. The microfluidic cartridge was composed by three layers shown in FIG. 9. The upper layer contained serum and reagents reservoirs, microfluidic pumps, and ELISA channel network. […]
as §2

[5] = system: Human IgM; test: Glycan array analysis (secondary test), relative anti-glycan Human IgM, pancreatic cancer; format: binding
Description: The reagents, equipment and assay procedures were totally the same as primary test. However, the intensity of array was converted into “Ab level (μg/mL)” based on following calculation which is relative to Anti-human Globo H IgG.
The internal curve of each chip was using linear regression to calculate slope and intercept. In certain examples, the Ab level (μg/mL)=[(raw data-intercept)/slope]×0.1. The internal curve was performed using 0.0625, 0.125, 0.25, 0.5, 0.75, and 1 μg/mL of human IgM.
Relative Anti-glycan Human IgM: There were total 277 clinical samples (108 pancreatic cancer and 169 healthy serum) performed using Globo H-lipid 1 and SSEA-4-lipid 1 immobilized arrays. The median values of Globo H-lipid 1 IgM test were 0.32 (pancreatic cancer) and 0.25 (healthy) [FIG. 11A]. The median values of SSEA-4-lipid 1 IgM test were 0.12 (pancreatic cancer) and 0.08 (healthy) [FIG. 11B].

| Molecule | optical density at 405 nm (OD405) [1] | Mean (IgM) Healthy (n = 100) ([2]; healthy samples) | Mean (IgM) Pancreatic cancer (n = 115) ([2]; pancreatic cancer samples) | median glycan score, IgM test ([3]; healthy serum) | median glycan score, IgM test ([3]; pancreatic cancer serum) | median glycan score, IgG test ([4]; healthy serum) | median glycan score, IgG test ([4]; pancreatic cancer serum) | median Ab level, IgM test ([5]; healthy serum) [µg/mL] | median Ab level, IgM test ([5]; pancreatic cancer serum) [µg/mL] |
| --- | --- | --- | --- | --- | --- | --- | --- | --- | --- |
| CCCCCCCCCCCCCCCCOC[C@@H](COC(=O)CCCC(=O)NCCCCCO[C@H]1OC(CO)[C@@H](O[C@@H]2OC(CO)[C@H](O[C@H]3OC(CO)[C@H](O)C(O[C@@H]4OC(CO)[C@H](O)C(O[C@@H]5OC(CO)[C@H](O)C(O)C5O[C@@H]5OC(C)[C@@H](O)C(O)C5O)C4NC(C)=O)C3O)C(O)C2O)C(O)C1O)OCCCCCCCCCCCCCCCC (stereo partly shown) [Globo H-lipid 2] | higher than Globo H-ceramide | – | – | – | – | – | – | – | – |
| Globo H-ceramide [reference compound] | – | 1977.88 | 3130.03 | 1.57 | 2.53 | – | – | – | – |
| CCCCCCCCCCCCCCCCOCC(OCCCCCCCCCCCCCCCC)C(=O)NCCCCCO[C@H]1OC(CO)[C@@H](O[C@@H]2OC(CO)[C@H](O[C@H]3OC(CO)[C@H](O)C(O[C@@H]4OC(CO)[C@H](O)C(O[C@@H]5OC(CO)[C@H](O)C(O)C5O[C@@H]5OC(C)[C@@H](O)C(O)C5O)C4NC(C)=O)C3O)C(O)C2O)C(O)C1O (stereo partly shown) [Globo H-lipid 1] | – | – | – | 2.56 | 6.64 | 0.12 | 0.54 | 0.25 | 0.32 |
| CCCCCCCCCCCCCCCCOC[C@@H](OCCCCCCCCCCCCCCCC)C(=O)NCCCCCO[C@@H]1O[C@H](CO)[C@@H](O[C@@H]2O[C@H](CO)[C@H](O[C@H]3O[C@H](CO)[C@H](O)[C@H](O[C@@H]4O[C@H](CO)[C@H](O)[C@H](O[C@@H]5O[C@H](CO)[C@H](O)[C@H](O[C@]6(C(=O)O)C[C@H](O)[C@@H](NC(C)=O)[C@H]([C@H](O)[C@H](O)CO)O6)[C@H]5O)[C@H]4NC(C)=O)[C@H]3O)[C@H](O)[C@H]2O)[C@H](O)[C@H]1O [SSEA-4-lipid 1] | – | – | – | – | – | – | – | 0.08 | 0.12 |

Source: US10935544B2, “Glycan arrays and method of use” (OBI Pharma, Inc., priority 2015, dated 2021)
